Patent publication US20260053861A1, “CELL COMPOSITIONS AND METHODS OF USING THE SAME” (THE REGENTS OF THE UNIVERSITY OF CALIFORNIA, priority 2022, published 2026)
Counter-ions that a name gives are not always drawn. Like-named read-outs stand apart in the source and are kept apart here.

System: hPSC-SCs
[1] = HTS viability of hPSC-SCs in the presence of 30 mM glucose, Prestwick library, Table S4

Compound	z.score.t [1]	z.score.t
CN1[C@@H]2CC[C@H]1C[C@@H](OC(=O)c1c[nH]c3ccccc13)C2 [Tropisetron HCl]	−0.7595	
Cc1cc(=O)oc2cc(O)ccc12 [Hymecromone]	0.9525	
CCc1c(C)[nH]c2c1C(=O)C(CN1CCOCC1)CC2 (centres unmarked) [Molindone hydrochloride]	−0.1759	
CC(=O)Oc1ccccc1C(=O)Oc1ccccc1C(=O)O [Acetylsalicylsalicylic acid]	0.3922	
S=C(NC1CCCCC1)N1CCC(c2cnc[nH]2)CC1 [Thioperamide maleate]	0.8825	
COC(=O)Nc1nc2ccc(C(=O)c3cccs3)cc2[nH]1 [Nocodazole]	−1.329	
CN(C)/N=N/c1[nH]cnc1C(N)=O [Dacarbazine]	−0.6301	
O=C1CC[C@@]2(O)[C@H]3Cc4ccc(O)c5c4[C@@]2(CCN3CC2CC2)[C@H]1O5 [Naltrexone hydrochloride dihydrate]	0.754	
CC(N/C(=N\C#N)Nc1ccncc1)C(C)(C)C (centres unmarked) [Pinacidil]	−0.03449	
COc1ccc(C2CNC(=O)C2)cc1OC1CCCC1 (centres unmarked) [Rolipram]	−0.01101	
CN(C)CCCOc1nn(Cc2ccccc2)c2ccccc12 [Benzydamine hydrochloride]	−1.272	
Guanadrel sulfate		0.7158
CC(C)(C)NCC(O)COc1cccc2c1CCC(=O)N2 (centres unmarked) [Carteolol hydrochloride]	1.266	
NC(=O)N/N=C/c1ccc([N+](=O)[O-])o1 [Nitrofural]	0.767	
OC(c1ccccc1)(c1ccccc1)C1CCNCC1 [Azacyclonol]		0.5179
CC(=O)c1cc2ccccc2oc1=O [3-Acetylcoumarin]	−0.7757	
CN(C)C(=N)N=C(N)N [Metformin hydrochloride]	0.8639	
Nc1ncnc2c1ncn2[C@@H]1O[C@H](CO)[C@@H](O)[C@@H]1O [Vidarabine]	0.1019	
CC[C@H](C)C(=O)O[C@H]1C[C@@H](C)C=C2C=C[C@H](C)[C@H](CC[C@@H]3C[C@@H](O)CC(=O)O3)[C@H]21 [Lovastatin]	−0.865	
CCN(CC)CCOC(=O)C1(C2CCCCC2)CCCCC1 [Dicyclomine hydrochloride]	−0.2865	
C[C@]12CC[C@@H]3c4ccc(O)cc4CC[C@H]3[C@@H]1CC[C@@H]2O [Estradiol-17 beta]	−0.7953	
O=C(O)c1ccccc1OP(=O)(O)O [Fosfosal]	0.495	

Compound	z.score.t [1]	z.score.t
CCC(=O)O[C@@](Cc1ccccc1)(c1ccccc1)[C@@H](C)CN(C)C [Levopropoxyphene napsylate]		−0.5351
CN(C)CC/C=C1\c2ccccc2CSc2ccccc21 [Dosulepin hydrochloride]	−0.8478	
O=C1CCC(N2C(=O)c3ccccc3C2=O)C(=O)N1 (centres unmarked) [Thalidomide]	−1.821	
Fc1ccc(C(OCCN2CCN(CCCc3ccccc3)CC2)c2ccc(F)cc2)cc1 [GBR 12909 dihydrochloride]	−1.092	
C=C1[C@@H]2CC[C@H]3[C@]4(C)C[C@H](O[C@@H]5O[C@H](CO)[C@@H](OS(=O)(=O)O)[C@H](OS(=O)(=O)O)[C@H]5OC(=O)CC(C)C)C[C@@H](C(=O)O)[C@H]4CC[C@]3(C2)[C@@H]1O [Atractyloside potassium salt]		−0.7376
COCC(=O)Nc1c(I)c(C(=O)NCC(O)CO)c(I)c(C(=O)N(C)CC(O)CO)c1I (centres unmarked) [Iopromide]	−0.5992	
CC(=O)OC(C)C[N+](C)(C)C (centres unmarked) [Methacholine chloride]	1.554	
CCC1=C(C)CN(C(=O)NCCc2ccc(S(=O)(=O)NC(=O)N[C@H]3CC[C@H](C)CC3)cc2)C1=O [Glimepiride]	1.252	
COc1ccc(NS(=O)(=O)c2ccc(N)cc2)nn1 [Sulfamethoxypyridazine]	0.2139	
CCN(CC)CCOC(=O)C(Cc1cccc2ccccc12)CC1CCCO1 (centres unmarked) [Nafronyl oxalate]	2.094	
CC(=O)c1ccc(S(=O)(=O)NC(=O)NC2CCCCC2)cc1 [Acetohexamide]	0.5856	
CCCNC(=O)NS(=O)(=O)c1ccc(Cl)cc1 [Chlorpropamide]	0.1979	
COc1ccc(Cl)cc1C(=O)NCCc1ccc(S(=O)(=O)NC(=O)NC2CCCCC2)cc1 [Glibenclamide]	−0.7776	
CN(C)CCC(c1ccccc1)c1ccccn1 (centres unmarked) [Pheniramine maleate]	−0.09426	
Cyanocobalamin		0.837
CNNCc1ccc(C(=O)NC(C)C)cc1 [Procarbazine hydrochloride]	−0.01802	
O=C(N[C@H](CO)[C@H](O)c1ccc([N+](=O)[O-])cc1)C(Cl)Cl [Chloramphenicol]	1.278	
CNC1(C)C2CCC(C2)C1(C)C (centres unmarked) [Mecamylamine hydrochloride]	0.3097	
CC(=O)OCC(=O)NCCCOc1cccc(CN2CCCCC2)c1 [Roxatidine Acetate HCl]	1.139	
CN1CCC[C@@H]1CCO[C@](C)(c1ccccc1)c1ccc(Cl)cc1 [Clemastine fumarate]	−1.892	
CCCCN(CCCC)CCCOC(=O)c1ccc(N)cc1 [Butacaine]	−0.3023	
Cc1cc(C2CCCCC2)n(O)c(=O)c1.NCCO [Ciclopirox ethanolamine]	−1.422	

Compound	z.score.t [1]	z.score.t
Nc1c(Br)cc(Br)cc1CN[C@H]1CC[C@H](O)CC1 [Ambroxol hydrochloride]	0.837	
CCCCNc1cc(C(=O)O)cc(S(N)(=O)=O)c1Oc1ccccc1 [Bumetanide]	1.181	
CC(C)N1CCN(c2ccc(OCC3COC(Cn4cncn4)(c4ccc(Cl)cc4Cl)O3)cc2)CC1 (centres unmarked) [Terconazole]	−0.07901	
C1CCC(C(CC2CCCCN2)C2CCCCC2)CC1 (centres unmarked) [Perhexiline maleate]	−1.682	
Cc1[nH]ccc2c1[nH]c1cc(=O)ccc12 [Harmol hydrochloride monohydrate]		−0.7233
CCn1cc(C(=O)O)c(=O)c2cc(F)c(N3CCNC(C)C3)c(F)c21 (centres unmarked) [Lomefloxacin hydrochloride]	−0.9109	
Antimycin A		−1.787
CC(C)NCC(O)COc1cccc2ccccc12 (centres unmarked) [Propranolol hydrochloride]	−1.412	
CS(=O)(=O)c1ccc([C@@H](O)[C@@H](CF)NC(=O)C(Cl)Cl)cc1 [Florfenicol]	0.5365	
C[n+]1cccc(C(=O)[O-])c1 [Trigonelline]	0.9213	
CCC1(C)CC(=O)NC1=O (centres unmarked) [Ethosuximide]	0.4064	
Tropicamide	−0.1241	
COc1ccccc1N1CCN(CCCNc2cc(=O)n(C)c(=O)n2C)CC1 [Urapidil hydrochloride]	0.4105	
CCN(CC)Cc1cc(Nc2ccnc3cc(Cl)ccc23)ccc1O [Amodiaquin dihydrochloride dihydrate]	−1.767	
CC1=C2[C@H]3OC(=O)[C@@H](C)[C@@H]3CC[C@@]2(C)C=CC1=O [alpha-Santonin]		−1.108
O=c1c(O)c(-c2ccc(O)cc2)oc2cc(O)cc(O)c12 [Kaempferol]	−1.014	
Cc1scc2c1N(C(=O)CN1CCN(C)CC1)c1ccccc1NC2=O [Telenzepine dihydrochloride]	0.5452	
CC(=O)N1CCN(c2ccc(OCC3COC(Cn4ccnc4)(c4ccc(Cl)cc4Cl)O3)cc2)CC1 (centres unmarked) [Ketoconazole]	1.669	
NC(N)=NCCCCN=C(N)N [Arcaine sulfate]	−0.7567	
(−)-Quinpirole hydrochloride		1.683
Nc1ccc(S(=O)(=O)NC(=O)c2ccccc2)cc1 [Sulfabenzamide]	−0.9042	
NC(=O)c1cnccn1 [Pyrazinamide]	1.73	

Compound	z.score.t [1]	z.score.t
CCN1C(=O)NC(c2ccccc2)C1=O (centres unmarked) [Ethotoin]	−0.6988	
CNCCCN1c2ccccc2CCc2ccccc21 [Desipramine hydrochloride]	−1.014	
O=C1C=CC(=O)c2c1ccc1c2ccc2ccccc21 [Chrysene-1,4-quinone]		−1.823
C=C1C[C@]23C[C@@]1(O)CC[C@H]2[C@@]12C=C[C@H](O)[C@@](C)(C(=O)O1)[C@H]2[C@@H]3C(=O)O [Gibberellic acid]	−0.3452	
OC(CCCN1CCCCC1)(c1ccccc1)c1ccccc1 [Diphenidol hydrochloride]	0.9906	
OCC(O)CN1CCN(c2ccccc2)CC1 (racemic) [Dropropizine (R,S)]	0.7162	
Helveticoside		1.053
O=C1C[C@@H](c2ccc(O)cc2)Oc2cc(O)cc(O)c21 [Naringenine]	1.539	
Cc1n[nH]c(=O)[nH]c1=O [Azathymine, 6]		−0.5337
CCCNC(C)(C)COC(=O)c1ccccc1 [Meprylcaine hydrochloride]	−0.4953	
CCCCC(CC)CNC(=N)NC(=N)NCCCCCCNC(=N)NC(=N)NCC(CC)CCCC (centres unmarked) [Alexidine dihydrochloride]	−1.733	
CN/C(=N/CCSCc1nc[nH]c1C)NC#N [Cimetidine]	0.4346	
CCS(=O)(=O)CCn1c([N+](=O)[O-])cnc1C [Tinidazole]	1.624	
Oc1ccc2c3c1O[C@H]1[C@@H](O)CC[C@@]4(O)[C@@H](C2)N(CC2CCC2)CC[C@]314 [Nalbuphine hydrochloride]		0.1298
CN(C)CCCSC(=N)N [Dimaprit dihydrochloride]	1.918	
CN(C)CCn1nnnc1SCC1=C(C(=O)O)N2C(=O)[C@@H](NC(=O)Cc3csc(N)n3)[C@H]2SC1 [Cefotiam hydrochloride]	−1.122	
CO[C@@H]1[C@@H](O[C@@H]2O[C@H](C)[C@@H](O[C@H]3C[C@@](C)(O)[C@@H](OC(=O)CC(C)C)[C@H](C)O3)[C@H](N(C)C)[C@H]2O)[C@@H](CC=O)C[C@@H](C)[C@@H](O)/C=C/C=C/C[C@@H](C)OC(=O)C[C@H]1OC(C)=O [Josamycin]	−0.827	
N=C(N)N/N=C/c1c(Cl)cccc1Cl [Guanabenz acetate]	0.5179	
O=C(O)[C@]1(O)C[C@@H](O)[C@@H](O)[C@H](O)C1 [Quinic acid]	0.5268	
Carbinoxamine maleate salt	0.07936	
